Reference: patent US20250344695A1, “METHOD FOR PEST CONTROL” (priority 2024, published 2025)
In brackets after ≈: the same amount, converted by molar mass.

Legend:
[1] = system: spotted wing drosophila, Drosophila suzukii; assay: chlorobenzene fumigation in 1.9-liter jars, spotted wing drosophila flies; type: in vivo; details: 50 μl/l dose, 3 h at 21° C.
Description: (§1) Example 1: Chlorobenzene fumigations were conducted for control of six insect species and one mite species and they were: rice weevil, Sitophilus oryzae (Coleoptera: Curculionidae), confused flour beetle, Tribolium confusum (Coleoptera: Tenebrionidae), navel orangeworm, Amyelois transitella (Lepidoptera: Pyralidae), spotted wing drosophila, Drosophila suzukii (Diptera: Drosophilidae), western flower thrips, Frankliniella occidentalis (Thysanoptera: Thripidae), eastern subterranean termite, Reticulitermes flavipes (Blattodea: Rhinotermitidae), and ham mite, Tyrophagus putrescentiae (Schrank) (Acarina: Acaridae) (FIG. 2). Most fumigations were conducted in 1.9-liter glass jars. Confused flour beetle and rice weevil were fumigated in 1.9-liter jars and in 60-liter chambers with corn. Navel orangeworm was fumigated in 21.8 L chambers modified from pressure cookers.
Rice weevil and confused flour beetle were reared on pearled barley and wheat flour diet in jars, respectively. Western flower thrips were reared on lettuce plants in a greenhouse. Spotted wing drosophila was reared on an artificial diet in plastic cups. […]
A filter paper disc was clipped on the port underneath the lid with a metal clip. […] Insect mortality was then scored. Chlorobenzene doses were recorded as microliter liquid per liter of chamber space (ul/l). […]

[2] = system: western flower thrips, Frankliniella occidentalis; assay: chlorobenzene fumigation in 1.9-liter jars, western flower thrips larvae and adults; type: in vivo; details: 24 h at 2° C.
Description: as §1, with “Navel orangeworm was fumigated in 21.8 L chambers modified from pressure cookers.” left out
(§2) A filter paper disc was clipped on the port underneath the lid with a metal clip. […] Insect mortality was then scored. Chlorobenzene doses were recorded as microliter liquid per liter of chamber space (ul/l).
Larvae and adults of western flower thrips were collected from infested lettuce plants in small vials each containing a piece of lettuce leaf (ca 20/vial) and stored in a refrigerator to cool them down. […] Vapor concentrations of chlorobenzene were measured during fumigation. After fumigation, thrips were kept at 2° C. overnight before mortality was scored. […]

[3] = cited from earlier work
[4] = system: confused flour beetle, Tribolium confusum; assay: chlorobenzene fumigation in 1.9-liter jars, confused flour beetle adults; type: in vivo; details: 21° C.
Description: as §1, with “cookers. […]” for “cookers.”
as §2
(§3) Confused flour beetle and rice weevil adults were collected separately in plastic vials from their prospective colonies. […] Chlorobenzene vapor concentrations were measured during fumigation using detector tubes. After fumigation, insects were kept at room temperature overnight before being scored for mortality. […]

[5] = system: eastern subterranean termite, Reticulitermes flavipes; assay: chlorobenzene fumigation in 1.9-liter jars, eastern subterranean termite workers; type: in vivo; details: 50 μl/l dose, 3 h at 21° C.
Description: as §1
Rice weevil and confused flour beetle were reared on pearled barley and wheat flour diet in jars, respectively. […]
as §2
Workers of eastern subterranean termites were obtained from a commercial source. […] After fumigation, vials with insects were held in an environmental chamber overnight before mortality was scored. […]

[6] = at 20° C.; cited from earlier work
[7] = system: confused flour beetle; assay: large-scale chlorobenzene fumigation of corn in a 60-liter chamber, confused flour beetle all life stages; type: in vivo, Tribolium confusum; details: 24 h at 21° C.
Description: (§4) Procedure-Large-scale chlorobenzene fumigations of corn with confused flour beetle and rice weevil were conducted in a 60 L fumigation chamber. The chamber was modified from a 60 L diary pot with an added platform at bottom and a vertically positioned air blower to circulate air in the chamber (FIG. 3). A vial with filter paper was positioned near a port on the wall. A total of 20 kg corn was placed in 9 mesh bags. Confused flour beetle adults and other life stage in flour diet and rice weevil adults and other life stages in pearled barley were sealed in small plastic cages with mesh screens on top and bottom for air movement. One cage with confused four beetle culture medium with all life stages and one cage with all life stages of rice weevil were placed in each mesh bag. The bags were packed in the chamber in two layers. The last two containers with confused flour beetle and rice weevil respectively were placed on top of the corn bags. Ten cages for each species were set up to be fumigated. Five cages for each species were used as controls. The chamber was then placed in a fume hood. After the chamber was sealed, 30 ml chlorobenzene was injected into the vial in the chamber and the air blower was turned on to start a fumigation treatment. The fumigation treatment lasted 24 h at 21° C.
(§5) In each fumigation, chlorobenzene vapor concentrations were measured at 2, 4, 6, 9, 21,and 24 h of each treatment using chlorobenzene detector tubes. For each measurement, a 40 ml air sample from the headspace of the chamber was taken and diluted 50-fold in a 1.9 L glass jar. Then, chlorobenzene detectors with a range of 2-500 ppm were used to measure chlorobenzene concentrations. At the end of each fumigation, the lid of the fumigation chamber was removed, and the air blower was kept running for at least 2 h to ventilate the chamber. The corn bags were then removed and containers with insects were recovered. Insects together with diet from each cage were placed in a plastic vial. All adults were removed from each vial and mortality of adults was scored next day. All vials with diet containing other life stages were incubated at 25° C. in an environmental chamber to allow surviving immature individuals to develop and emerge as adults. The vials were checked weekly to count and remove emerged adults to assess mortality of immature stages until there was no adult emergence for two consecutive weeks. A total of three large-scale fumigation tests have been conducted.

[8] = system: navel orangeworm, Amyelois transitella; assay: 24 h chlorobenzene fumigation in 21.8-liter chambers, navel orangeworm eggs, larvae and pupae; type: in vivo; details: 24 h at 21° C.; for Larvae Mortality (%) Mean ± SE: 2nd, 4th, 6th instar pooled
Description: Procedure-Navel orangeworm eggs, larvae, and pupae were fumigated with chlorobenzene for 24 h at 21° C. in 21.8L chambers modified from pressure cookers to determine effects on mortality. Each chamber has a fan to circulate air. A small container with a piece of filter affixed in it was positioned next to the fan in each chamber as a reservoir for chlorobenzene (FIG. 4). Egg sheet with eggs oviposited during the last 3 days was harvested and cut into small pieces each with about 50 eggs. One piece of egg sheet was placed in a small 49 ml plastic vial and sealed with a screened lid. Larvae of three different ages (2nd, 4th, and 6th) were set up separately in 157 ml plastic vials each containing 3 g diet (10/vial). The vial was sealed with a screened lid. Three chlorobenzene does 50, 100, and 200 μl/l were tested in three chambers. They were achieved by adding 1, 2, and 4 ml of chlorobenzene in reservoirs in three fumigation chambers, respectively. Except for eggs that were only fumigated with chlorobenzene at 100 and 200 μl/l together with larvae and pupae, in each test, 5 vials of eggs, 9 vials of larvae (3 vials for each stage), and 3 vials of pupae were fumigated in one chamber. Controls were also set up for all life stages tested.
After chlorobenzene was added, the chamber was sealed and the fan was turned on to circulate air continuously for the 24 h duration of fumigation. Chlorobenzene detector tubes were used to measure chlorobenzene vapor concentrations 5-6 times between 2 h after start and before the end of fumigations. By the end of fumigation, all chlorobenzene liquid had vaporized in all three treatments. After fumigation, vials with larvae were held at 21° C. overnight before larval mortality was scored. For navel orangeworm eggs, diet was added in each vial and vials were incubated at 25° C. to allow all viable eggs to hatch. After over 10 days, neonate larvae were counted to estimate egg mortality. Pupae were also incubated at 25° C. in an environmental chamber to allow all viable pupae to develop into moths, and moths were then counted to determine pupal mortality. A total of three tests were conducted.

[9] = system: ham mite, Tyrophagus putrescentiae; assay: chlorobenzene fumigation in 1.9-liter jars, ham mites on dog food kibbles; type: in vivo; details: 21° C., larvae and adults
Description: as §1, with “cookers. […]” for “cookers.”
as §2
Ham mites on infested dog food kibbles were fumigated with chlorobenzene at different doses for 24 and 48 h at 21° C. […] After fumigation, vials with ham mites were held at 21° C. overnight before mortality of larvae and adults was scored. […] Chlorobenzene vapor concentrations were measured during each fumigation. […]

[10] = system: rice weevil, Sitophilus oryzae; assay: chlorobenzene fumigation in 1.9-liter jars, rice weevil adults; type: in vivo; details: 21° C.
Description: as §1, with “cookers. […]” for “cookers.”
as §2, §3

[11] = system: rice weevil; assay: large-scale chlorobenzene fumigation of corn in a 60-liter chamber, rice weevil all life stages; type: in vivo, Sitophilus oryzae; details: 24 h at 21° C.
Description: as §4, §5

[12] = cited from earlier work; remark: listed apart in the source
[13] = air=1; cited from earlier work
[14] = 100 μl/l dose (800 ppm vapor concentration), 48-h fumigation
[15] = 150 μl/l dose (1800 ppm vapor concentration), 24-h fumigation
[16] = 30 ml chlorobenzene in 60 L chamber with 20 kg corn
[17] = large-scale fumigations of corn, 60 L chamber

Clc1ccccc1 [chlorobenzene]
mortality of spotted wing drosophila flies [1]: 100% | mortality at 370 ppm ([2]; 50 μl/l dose (about 370 ppm)): 95.3% | mortality at 630 ppm ([2]; 75 μl/l dose (about 630 ppm)): 100% | water solubility [3]: 466.3 µg/mL (≈ 4.14 mM) | mortality of confused flour beetle adults [4, 14]: 100% | mortality of confused flour beetle adults [4, 15]: 100% | mortality of termite workers [5]: 100% | vapor pressure [6]: 11.7 mmHg | Adults Mortality (%) [7, 16]: 100% | Immature stages Survived to adults ([7]; 30 ml chlorobenzene in 60 L chamber with 20 kg corn, adults emerged from 30 treatment vials): 0 | Immature stages Relative mortality (%) ([7]; 30 ml chlorobenzene in 60 L chamber with 20 kg corn, relative to control by adults emerged): 100% | control of adults and immature life stages of confused flour beetle [7, 17]: Complete control | Pupae Mortality (%) Mean ± SE ([8]; 50 μl/l dose): 7.4 ± 3.8% | Larvae Mortality (%) Mean ± SE ([8]; 50 μl/l dose): 20.4 ± 3.6% | Pupae Mortality (%) Mean ± SE ([8]; 100 μl/l dose): 20.4 ± 5.0% | Larvae Mortality (%) Mean ± SE ([8]; 100 μl/l dose): 69.1 ± 4.6% | Eggs Total neonates ([8]; 100 μl/l dose, 890 eggs (control 370 neonates of 887)): 0 | Pupae Mortality (%) Mean ± SE ([8]; 200 μl/l dose): 43.5% | Larvae Mortality (%) Mean ± SE ([8]; 200 μl/l dose): 95.9 ± 1.3% | Eggs Total neonates ([8]; 200 μl/l dose, 884 eggs (control 370 neonates of 887)): 0 | effect on navel orangeworm eggs ([8]; both doses (100 and 200 μl/l)): All eggs were killed | mortality at 1700 ppm ([9]; 150 μl/l dose (about 1700 ppm), 48-h fumigation): 99.9% | mortality at 2000 ppm ([9]; 200 μl/l dose (about 2000 ppm), 24-h fumigation): 100% | mortality of rice weevil adults [10, 14]: 100% | mortality of rice weevil adults [10, 15]: 100% | Adults Mortality (%) [11, 16]: 100% | Immature stages Survived to adults ([11]; 30 ml chlorobenzene in 60 L chamber with 20 kg corn, adults emerged from 30 treatment vials (1645 from 15 control vials)): 73 | Immature stages Relative mortality (%) ([11]; 30 ml chlorobenzene in 60 L chamber with 20 kg corn, relative to control by adults emerged, assuming equal numbers of vials): 97.8% | control of adults of rice weevil [11, 17]: complete control | OSHA exposure limit ([12]; 8-hour workday and 40-hour work week): 75 ppm | oral and dermal toxicity ([12]; EPA category 4): very low | carcinogenicity ([12]; reported): non-carcinogenic | vapor density relative to air [13]: 3.9
